Experimental data as given in US20100184680A1, “THERAPEUTIC USES OF B-TYPE NATRIURETIC PEPTIDE AND HUMAN GROWTH HORMONE 1-43” (priority 2007, published 2010).
Bridge positions count the residues as written; N and C are the ends. Ends that are not written are not given here.

Experiments:
HIV-1IIIB = experiment: HIV-1 antiviral assay in CEM-SS cells
HCMV strain AD169 = experiment: HCMV plaque formation assay in MRC-5 cells; type: cell-based
[1] = test system: isolated buffer-perfused and ventilated rabbit lung; experiment: Isolated ventilated and buffer perfused lung model
Protocol: The isolated buffer-perfused and ventilated rabbit lung model is established for the investigation of the lung circulation, parenchyma, bronchial system and metabolic processes. Lungs are prepared from intact animals; the lungs are artificially ventilated and blood-free perfused. This model allows the study of pathophysiologic aspects under different conditions. Isolation of the intact lung enables observation of vasoreactivity, ventilation pressures and gas exchange avoiding humoral, central or metabolic influence. Lungs were perfused with test peptide BNP using a pulsatile flow roller pump in a closed system with recirculating buffer fluid. A rabbit ventilator enables the artificial ventilation with room air/carbon dioxide-mixture (CO2). Parameters continuosly measured include lung artery and left atrial pressure and ventilation pressure. Registration of lung weight gain serves as a parameter for development of lung edema. Samples of buffer fluid can be taken through the catheters.
Rabbits (New Zealand white bastards) of either sex, weighing 2.2-2.5 kg were anesthetized, using ketamine (Ketamin Inresa®, Inresa, Freiburg, Germany) and xylazine (Rompun®, Bayer, Leverkusen, Germany). Animals were anticoagulated with heparin (1000 U/kg body weight). After tracheotomy artificial ventilation was started with room air using a Havard respirator (tidal volume 8-12 ml/kg, frequency 30 breaths/min). Midsternal thoracotomy followed in a deep analgosedation and catheters were placed into the pulmonary artery and the left atrium. Lungs were perfused with sterile Krebs-Henseleit hydroxyethylamylopectine buffer (120 mM NaCl, 4.3 mM KCl, 1.1 mM KH2PO4, 25 mM NaHCO3, 2.4 mM CaCl2, 1.3 mM […], 2.4 g/L glucose) and 2.5% hydroxyethylamylopectine (mol weight 200,000) as an oncotic agent (Serag Wiesner, Naila, Germany). All concentrations are given as the final concentration in the buffer fluid.
The isolated lungs were freely suspended from an electronic force transducer (Transducer U1, Hottinger Baldwin Messtechnik, Darmstadt, Germany) in a humidified and tempered glas thorax. Perfusion was performed at a constant rate of 120 mL/min in a recirculating manner (total perfusate volume 300 mL), and the whole system was heated to 38° C. Room air, supplemented with ˜4% carbon dioxide was used for artificial ventilation to reach a pH of 7.34 to 7.38 and a positive end exspiratory pressure (PEEP) was set at 1-1.3 mmHg. Pressure in left atrium was set at 1.2 mmHg (reference point hilum). Pulmonary artery and ventilation pressures were continuously measured and are shown as mean values.
Independent variables in all experiments were: constant perfusion flow rate of 120 ml/min and a ventilator setting (tidal volume 8-12 ml/kg; frequency 30 breaths/min). The main dependent variables included: pressures in trachea and artery which were continuously measured. Lung weight gain as a parameter of lung edema formation was also continuously registered. Under constant flow condition, elevation of the artery pressure directly reflected an increase in vascular resistance.
Thromboxan A2 mimetic U46619 induces vasoconstriction: Lung artery pressure under resting conditions is about 8 mmHg. Slow titration, followed by continuous infusion of the thromboxan A2 mimetic U46619 causes precapillary vasoconstriction of about 25 mmHg. An observation period of up to 3 hours is accessible for further intervention.
Endothelin 1 (ET1) vasoconstricts the lung vasculature and leads to increased pressure in the isolated rabbit lung in a biphasic matter that is dose dependent. Infusion or inhalation of the test peptide of the invention is tested for therapeutic effect of lowering the vasoconstriction.
All data are shown as mean and standard error of mean (SEM). For primary data analysis, comparison was performed between the U46619 group and intravascular administered peptide. […]

Interferon-γ (IFN-γ) = experiment: Th1/Th2 cytokine profiling assay: IFN-γ; type: cell-based, Balb/c mice; details: 10 micrograms per ml; Ovalbumin restimulation; 72 hours
Source text: (§1) The Balb/c mice (originated in 1923, it is a popular strain and is used in many different research disciplines. Also classified as an inbred from the production of 20 or more successive brother-sister matings, the Balb/c mouse is albino and small in size) were immunized on Days 1, 15, and 29 with Ovalbumin (Ovalbumin is the main protein found in egg white, commonly used to stimulate an immunological reaction in test animals) in PBS (5 micrograms/injection). On day 50, spleens of the mice were harvested (3 weeks after last boost with Ovalbumin). Cells were cultured (2×10^5/well in triplicate) and incubated with culture medium or test peptides—10 micrograms per ml—for 30 min. Thereafter, additional Ovalbumin was added to the cells at 10 micrograms/ml for in vitro restimulation of the cells. 72 hours later, cell supernatants were harvested and assayed using the Becton Dickinson Mouse Th1/Th2 Cytokine CBA Kit. This kit can be used to measure Interleukin-2 (IL-2), Interleukin-4 (IL-4), Interleukin-5 (IL-5), Interferon-γ (IFN-γ), and Tumor Necrosis Factor-α (TNF-α) protein levels in a single sample. The kit performance has been optimized for analysis of physiologically relevant concentrations (pg/ml levels) of specific cytokine proteins in tissue culture supernatants and serum samples.

HUVEC = experiment: Endothelial tube formation assay; type: cell-based, human; details: 10 micrograms per ml, 20 hours
Source text: Positive control was vehicle only.

[2] = test system: Tumor Necrosis Factor-α (TNF-α); experiment: Th1/Th2 cytokine profiling assay: TNF-α; type: cell-based, Balb/c mice; details: 10 micrograms per ml; Ovalbumin restimulation; 72 hours
Source text: as §1

Human A549 cells = experiment: Apoptosis prevention assay (C2 ceramide, Annexin-5); type: cell-based; details: 10 micrograms per ml, 30 min pretreatment
Protocol: Human A549 cells (carcinomic human alveolar basal epithelial cells) were utilized in the experiments employing the Annexin-5 apoptosis assay. […] A549 cells were pretreated for 30 min with test peptides—10 micrograms per ml—followed by the exposure to C2 ceramide.

Interleukin-5 (IL-5) = experiment: Th1/Th2 cytokine profiling assay: IL-5; type: cell-based, Balb/c mice; details: 10 micrograms per ml; Ovalbumin restimulation; 72 hours
Source text: (§2) The Balb/c mice (originated in 1923, it is a popular strain and is used in many different research disciplines. Also classified as an inbred from the production of 20 or more successive brother-sister matings, the Balb/c mouse is albino and small in size) were immunized on Days 1, 15, and 29 with Ovalbumin (Ovalbumin is the main protein found in egg white, commonly used to stimulate an immunological reaction in test animals) in PBS (5 micrograms/injection). On day 50, spleens of the mice were harvested (3 weeks after last boost with Ovalbumin). Cells were cultured (2×10^5/well in triplicate) and incubated with culture medium or test peptides—10 micrograms per ml—for 30 min. Thereafter, additional Ovalbumin was added to the cells at 10 micrograms/ml for in vitro restimulation of the cells. 72 hours later, cell supernatants were harvested and assayed using the Becton Dickinson Mouse Th1/Th2 Cytokine CBA Kit.

Interleukin-2 (IL-2) = experiment: Th1/Th2 cytokine profiling assay: IL-2; type: cell-based, Balb/c mice; details: 10 micrograms per ml; Ovalbumin restimulation; 72 hours
Source text: as §1

[3] = test system: Primary Human endothelial cells (HUVEC); experiment: Endothelial cell migration assay; type: cell-based; details: 10 micrograms per ml, 22 hours
Interleukin-4 (IL-4) = experiment: Th1/Th2 cytokine profiling assay: IL-4; type: cell-based, Balb/c mice; details: 10 micrograms per ml; Ovalbumin restimulation; 72 hours
Source text: as §2

cGMP = experiment: Cyclic GMP measurement in the rabbit lung model; details: buffer samples from left atrial catheter; RIA; administration dependent
Protocol: Buffer samples were drawn from the left atrial catheter in the isolated buffer-perfused and ventilated rabbit lung model at predefined time points, every 30 minutes in the control group and every 15 minutes in the intervention groups. Samples were immediately frozen and stored at −80° Celsius. Analysis of cGMP was performed using a commercially available radio immuno (RIA) assay kit.

[4] = increasing doses of 5, 10 and 100 nM, isolated rabbit lung

Compound: Cc1cn([C@H]2C[C@H](N=[N+]=[N-])[C@@H](CO)O2)c(=O)[nH]c1=O [AZT]
- antiviral activity of positive control compounds (HIV-1) (HIV-1IIIB): expected levels of antiviral activity

Compound: Nc1nc(O)c2ncn(COC(CO)CO)c2n1 [Ganciclovir]
- antiviral activity of positive control compound (HCMV) (HCMV strain AD169): expected levels of antiviral activity

Compound: CCCCC[C@H](O)/C=C/[C@@H]1[C@@H](C/C=C\CCCC(=O)O)[C@H]2CO[C@@H]1C2 [U46619, reference compound]
- vasoconstriction (lung artery pressure), plateau at the end of the experiment ([1]; continuous infusion, after another 135 minutes): 25.53±0.9 mmHg
- vasoconstriction (lung artery pressure) provoked by continuous infusion ([1]; within 15 minutes, isolated rabbit lung): 25.5±0.26 mmHg

Compound: CC(C)(C)NC(=O)[C@@H]1CN(Cc2cccnc2)CCN1C[C@@H](O)C[C@@H](Cc1ccccc1)C(=O)N[C@H]1c2ccccc2C[C@H]1O [indinavir]
- antiviral activity of positive control compounds (HIV-1) (HIV-1IIIB): expected levels of antiviral activity

Compound: Endothelin 1 (CSCSSLMDKECVYFCHLDIIW; disulfide 1-15, 3-11; ends not checked; UniProt P05305 53-73, looked up) [ET1, Endothelin 1 (ET1) vasoconstricts the lung vasculature, reference compound]
- vasoconstriction (lung artery pressure), stable plateau phase ([1]; administration into the buffer fluid, rise over 60 minutes): 27±2.16 mmHg

Compound: Phe-Pro-Thr-Ile-Pro-Leu-Ser-Arg-Leu-Phe-Asp-Asn-Ala-Met-Leu-Arg-Ala-His-Arg-Leu-His-Gln-Leu-Ala-Phe-Asp-Thr-Tyr-Gln-Glu-Phe-Glu-Glu-Ala-Tyr-Ile-Pro-Lys-Glu-Gln-Lys-Tyr-Ser-OH (FPTIPLSRLFDNAMLRAHRLHQLAFDTYQEFEEAYIPKEQKYS-OH) [Peptide 2, Human growth Hormone (1-43); HGH]
- IFNγ spleen cells; TH1 response (% of control) (Interferon-γ (IFN-γ)): 60.3 % of control
- inhibited the tube formation of endothelial cells (HUVEC): 19%
- TNF-a spleen cells; TH1 response (% of control) [2]: 94.0 % of control
- prevented (reduced) ceramide-induced apoptosis on human lung cells (Human A549 cells): 18.4%
- IL-5 spleen cells; TH2 response (% of control) (Interleukin-5 (IL-5)): 78.2 % of control
- IL-2 spleen cells (% of control) (Interleukin-2 (IL-2)): 132.2 % of control
- induced the migration of human endothelial cells [3]: 14%
- IL-4 spleen cells; TH2 response (% of control) (Interleukin-4 (IL-4)): 184.6 % of control

Compound: Ser-Pro-Lys-Met-Val-Gln-Gly-Ser-Gly-Cys-Phe-Gly-Arg-Lys-Met-Asp-Arg-Ile-Ser-Ser-Ser-Ser-Gly-Leu-Gly-Cys-Lys-Val-Leu-Arg-Arg-His [Peptide 1]
- IFNγ spleen cells; TH1 response (% of control) (Interferon-γ (IFN-γ)): 66.1 % of control
- inhibited the tube formation of endothelial cells (HUVEC): 3%
- TNF-a spleen cells; TH1 response (% of control) [2]: 93.1 % of control
- prevented (reduced) ceramide-induced apoptosis on human lung cells (Human A549 cells): 14.4%
- cGMP levels (cGMP): significantly increased
- IL-5 spleen cells; TH2 response (% of control) (Interleukin-5 (IL-5)): 92.7 % of control
- arterial pressure under stable high vasoconstriction [1, 4]: rapid and dose dependent decline
- lung weight [1, 4]: without affecting
- ventilation pressure [1, 4]: without affecting
- IL-2 spleen cells (% of control) (Interleukin-2 (IL-2)): 0.0 % of control
- inhibited the migration of human endothelial cells [3]: 21%
- IL-4 spleen cells; TH2 response (% of control) (Interleukin-4 (IL-4)): 0.0 % of control
